23 compounds from patent publication US9468661B2, “Pyrrolidine derivatives and their use as complement pathway modulators” (priority 2012, dated 2016) can be followed below.

In the first assay the target is human factor D (Homo sapiens (Human), UniProt P00746). Briefly: biochemical. Type of assay: biochemical. As to conditions: Factor D inhibition data using Method 1; recombinant human factor D 10 nM, substrate Z-Lys-thiobenzyl, fluorescence; read-out: IC50. The method, then: Human Complement Factor D Assay: Method 1
human factor D, sequence (P00746 26-253): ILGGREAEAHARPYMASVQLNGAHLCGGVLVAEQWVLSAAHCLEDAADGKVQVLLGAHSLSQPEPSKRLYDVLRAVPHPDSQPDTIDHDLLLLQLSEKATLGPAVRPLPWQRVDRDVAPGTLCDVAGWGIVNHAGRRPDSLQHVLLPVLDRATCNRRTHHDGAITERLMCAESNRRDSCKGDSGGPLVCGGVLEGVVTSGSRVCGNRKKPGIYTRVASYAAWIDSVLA
Recombinant human factor D (expressed in E. coli and purified using standard methods) at 10 nM concentration is incubated with test compound at various concentrations for 1 hour at room temperature in 0.1 M Hepes buffer, pH 7.5, containing 1 mM MgCl2, 1 M NaCl and 0.05% CHAPS. A synthetic substrate Z-Lys-thiobenzyl and 2,4-dinitrobenzenesulfonyl-fluoresceine are added to final concentrations of 200 μM and 25 μM, respectively. The increase in fluorescence is recorded at excitation of 485 nm and emission at 535 nm in a microplate spectrofluorimeter. IC50 values are calculated from percentage of inhibition of complement factor D-activity as a function of test compound concentration.
With `CC1(C)[C@H](CNC(=O)[C@@H]2C[C@H]3C[C@H]3N2C(=O)Nc2cn(C(N)=O)c3ccccc23)C1(Cl)Cl` [Example 27, (1R,3S,5R)-2-Aza-bicyclo[3.1.0]hexane-2,3-dicarboxylic acid 2-[(1-carbamoyl-1H-indol-3-yl)-amide] 3-[((R)-2,2-dichloro-3,3-dimethyl-cyclopropylmethyl)-amide]], the IC50 was found to be 19 nM.

In the case of `C[C@@H](NC(=O)[C@@H]1C[C@H]2C[C@H]2N1C(=O)Nc1cn(C(N)=O)c2ccccc12)C1CCCCC1` [Example 28, (1R,3S,5R)-2-Aza-bicyclo[3.1.0]hexane-2,3-dicarboxylic acid 2-[(1-carbamoyl-1H-indol-3-yl)-amide] 3-[((R)-1-cyclohexyl-ethyl)-amide]], the 50% inhibitory concentration (IC50) stood at 78 nM.

Consider `CC1CCCC(CNC(=O)[C@@H]2C[C@H]3C[C@H]3N2C(=O)Nc2cn(C(N)=O)c3ccccc23)C1` (stereo partly drawn) [Example 29, (1R,3S,5R)-2-Aza-bicyclo [3.1.0]hexane-2,3-dicarboxylic acid 2-[(1-carbamoyl-1H-indol-3-yl)-amide] 3-[(3-methyl-cyclohexylmethyl)-amide]], for which the IC50 came out at 46 nM.

As for `[2H]C([2H])([2H])[C@@H](NC(=O)[C@@H]1C[C@H]2C[C@H]2N1C(=O)Nc1cn(C(N)=O)c2ccccc12)[C@H]1CC1(Cl)Cl` [Example 30, (1R,3S,5R)-2-Aza-bicyclo [3.1.0]hexane-2,3-dicarboxylic acid 2-[(1-carbamoyl-1H-indol-3-yl)-amide] 3-{[(R)-1-((R)-2,2-dichloro-cyclopropyl)-ethyl-2,2,2-D3]-amide}], the IC50 is 15 nM.

On to `NC(=O)c1nn(CC(=O)N2[C@@H]3C[C@@H]3C[C@H]2C(=O)NC[C@H]2CC2(Cl)Cl)c2ccccc12` [Example 31, 1-(2-{(1R,3S,5R)-3-[((R)-2,2-Dichloro-cyclopropylmethyl)-carbamoyl]-2-aza-bicyclo[3.1.0]hex-2-yl}-2-oxo-ethyl)-1H-indazole-3-carboxylic acid amide], for which the IC50 was 32 nM.

As for `C[C@@H](NC(=O)[C@@H]1C[C@H]2C[C@H]2N1C(=O)Cn1nc(C(N)=O)c2ccccc21)[C@H]1CC1(Cl)Cl` [Example 36, 1-(2-{(1R,3S,5R)-3-[(R)-1-((R)-2,2-Dichloro-cyclopropyl)-ethylcarbamoyl]-2-aza-bicyclo[3.1.0]hex-2-yl}-2-oxo-ethyl)-1H-indazole-3-carboxylic acid amide], the IC50 stood at 25 nM.

`C[C@@H](NC(=O)[C@@H]1C[C@H]2C[C@H]2N1C(=O)Cn1nc(C(N)=O)c2ccncc21)[C@H]1CC1(Cl)Cl` [Example 37, 1-(2-{(1R,3S,5R)-3-[(R)-1-((R)-2,2-Dichloro-cyclopropyl)-ethylcarbamoyl]-2-aza-bicyclo[3.1.0]hex-2-yl}-2-oxo-ethyl)-1H-pyrazolo[3,4-c]pyridine-3-carboxylic acid amide]: the IC50 is 11 nM.

On to `Cc1cc2c(C(N)=O)nn(CC(=O)N3[C@@H]4C[C@@H]4C[C@H]3C(=O)N[C@H](C)[C@H]3CC3(Cl)Cl)c2cn1` [Example 38, 1-(2-{(1R,3S,5R)-3-[(R)-1-((R)-2,2-Dichloro-cyclopropyl)-ethylcarbamoyl]-2-aza-bicyclo[3.1.0]hex-2-yl}-2-oxo-ethyl)-5-methyl-1H-pyrazolo[3,4-c] pyridine-3-carboxylic acid amide], for which the half-inhibitory concentration (IC50) is 40 nM.

As to `CCc1cc2c(C(N)=O)nn(CC(=O)N3[C@@H]4C[C@@H]4C[C@H]3C(=O)N[C@H](C)[C@H]3CC3(Cl)Cl)c2cn1` [Example 39, 1-(2-{(1R,3S,5R)-3-[(R)-1-((R)-2,2-Dichloro-cyclopropyl)-ethylcarbamoyl]-2-aza-bicyclo[3.1.0]hex-2-yl}-2-oxo-ethyl)-5-ethyl-1H-pyrazolo[3,4-c] pyridine-3-carboxylic acid amide], the half-inhibitory concentration (IC50) came to 27 nM.

On to `NC(=O)c1nn(CC(=O)N2[C@@H]3C[C@@H]3C[C@H]2C(=O)NC[C@H]2CC2(Cl)Cl)c2ccc(OCc3nccs3)cc12` [Example 40, 1-(2-{(1R,3S,5R)-3-[((R)-2,2-Dichloro-cyclopropylmethyl)-carbamoyl]-2-aza-bicyclo[3.1.0]hex-2-yl}-2-oxo-ethyl)-5-(thiazol-2-ylmethoxy)-1H-indazole-3-carboxylic acid amide], for which the IC50 turned out to be 7 nM.

`CO[C@H]1[C@@H](C(=O)NC[C@H]2CC2(Cl)Cl)N(C(=O)Cn2nc(C(N)=O)c3ccc(Cl)cc32)C[C@@H]1F` [Example 41, 6-Chloro-1-(2-{(2S,3S,4S)-2-[((R)-2,2-dichloro-cyclopropylmethyl)-carbamoyl]-4-fluoro-3-methoxy-pyrrolidin-1-yl}-2-oxo-ethyl)-1H-indazole-3-carboxylic acid amide]: the half-inhibitory concentration (IC50) is 51 nM.

As for `CO[C@H]1[C@@H](C(=O)NC[C@H]2CC2(Cl)Cl)N(C(=O)Cn2nc(C(N)=O)c3ccccc32)C[C@@H]1F` [Example 42, 1-(2-{(2S,3S,4S)-2-[((R)-2,2-Dichloro-cyclopropylmethyl)-carbamoyl]-4-fluoro-3-methoxy-pyrrolidin-1-yl}-2-oxo-ethyl)-1H-indazole-3-carboxylic acid amide], the half-maximal inhibitory concentration (IC50) came out at 112 nM.

Consider `CC(=O)c1nn(CC(=O)N2[C@@H]3C[C@@H]3C[C@H]2C(=O)NC[C@H]2CC2(Cl)Cl)c2ccc(CCc3ncccn3)cc12` [Example 43, (1R,3S,5R)-2-{2-[3-Acetyl-5-(2-pyrimidin-2-yl-ethyl)-indazol-1-yl]-acetyl}-2-aza-bicyclo[3.1.0] hexane-3-carboxylic acid ((R)-2,2-dichloro-cyclopropylmethyl)-amide], for which the IC50 stood at 71 nM.

Regarding `Cc1nccc2c(C(N)=O)nn(CC(=O)N3[C@@H]4C[C@@H]4C[C@H]3C(=O)N[C@H](C)[C@H]3CC3(Cl)Cl)c12` [Example 44, 1-(2-{(1R,3S,5R)-3-[(R)-1-((R)-2,2-Dichloro-cyclopropyl)-ethylcarbamoyl]-2-aza-bicyclo[3.1.0]hex-2-yl}-2-oxo-ethyl)-7-methyl-1H-pyrazolo[3,4-c]pyridine-3-carboxylic acid amide], the IC50 worked out at 41 nM.

In the case of `Cc1cc2c(C(N)=O)nn(CC(=O)N3[C@@H]4C[C@@H]4C[C@H]3C(=O)N[C@H](C)[C@H]3CC3(Cl)Cl)c2c(C)n1` [Example 45, 1-(2-{(1R,3S,5R)-3-[(R)-1-((R)-2,2-Dichloro-cyclopropyl)-ethylcarbamoyl]-2-aza-bicycio[3.1.0]hex-2-yl}-2-oxo-ethyl)-5,7-dimethyl-1H-pyrazolo[3,4-c]pyridine-3-carboxylic acid amide], the half-maximal inhibitory concentration (IC50) came to 43 nM.

On to `CC(=O)c1nn(CC(=O)N2[C@@H]3C[C@@H]3C[C@H]2C(=O)N[C@H](C)[C@H]2CC2(Cl)Cl)c2ccccc12` [Example 46, (1R,3S,5R)-2-[2-(3-Acetyl-indazol-1-yl)-acetyl]-2-aza-bicyclo[3.1.0]hexane-3-carboxylic acid [(R)-1-((R)-2,2-dichloro-cyclopropyl)-ethyl]-amide], for which the IC50 turned out to be 12 nM.

`CC(=O)c1nn(CC(=O)N2[C@@H]3C[C@@H]3C[C@H]2C(=O)N[C@H](C)[C@H]2CC2(Cl)Cl)c2cnccc12` [Example 47, (1R,3S,5R)-2-[2-(3-Acetyl-pyrazolo[3,4-c]pyridin-1-yl)-acetyl]-2-aza-bicyclo[3.1.0] hexane-3-carboxylic acid [(R)-1-((R)-2,2-dichloro-cyclopropyl)-ethyl]-amide]: the half-maximal inhibitory concentration (IC50) amounted to 35 nM.

In the case of `CO[C@H]1[C@@H](C(=O)NC[C@H]2CC2(Cl)Cl)N(C(=O)Cn2nc(C(N)=O)c3ccc(C)cc32)C[C@@H]1F` [Example 48, 1-(2-{(2S,3S,4S)-2-[((R)-2,2-Dichloro-cyclopropylmethyl)-carbamoyl]-4-fluoro-3-methoxy-pyrrolidin-1-yl}-2-oxo-ethyl)-6-methyl-1H-indazole-3-carboxylic acid amide], the IC50 came out at 27 nM.

Take `C[C@@H](NC(=O)[C@@H]1C[C@H]2C[C@H]2N1C(=O)Cn1nc(C(N)=O)c2ccc(Cl)cc21)[C@H]1CC1(Cl)Cl` [Example 49, 6-Chloro-1-(2-{(1R,3S,5R)-3-[(R)-1-((R)-2,2-dichloro-cyclopropyl)-ethylcarbamoyl]-2-aza-bicyclo[3.1.0]hex-2-yl}-2-oxo-ethyl)-1H-indazole-3-carboxylic acid amide]: the IC50 stood at 4 nM.

Take `NC(=O)c1nn(CC(=O)N2[C@H](C(=O)NC[C@H]3CC3(Cl)Cl)C[C@@]3(CO)C[C@@H]23)c2ccccc12` [Example 52, 1-(2-{(1R,3S,5S)-3-[((R)-2,2-Dichloro-cyclopropylmethyl)-carbamoyl]-5-hydroxymethyl-2-aza-bicyclo[3.1.0]hex-2-yl}-2-oxo-ethyl)-1H-indazole-3-carboxylic acid amide]: the IC50 was 56 nM.

As to `C[C@@H](NC(=O)[C@@H]1C[C@H]2C[C@H]2N1C(=O)Cn1nc(C(N)=O)c2ccccc21)C1CCCCC1` [Example 54, 1-{2-[(1R,3S,5R)-3-((R)-1-Cyclohexyl-ethylcarbamoyl)-2-aza-bicyclo[3.1.0]hex-2-yl]-2-oxo-ethyl}-1H-indazole-3-carboxylic acid amide], the IC50 is 64 nM.

Turning to `C[C@@H](NC(=O)[C@@H]1C[C@H]2C[C@H]2N1C(=O)Cn1nc(C(N)=O)c2ccncc21)C1CCCCC1` [Example 55, 1-{2-[(1R,3S,5R)-3-((R)-1-Cyclohexyl-ethylcarbamoyl)-2-aza-bicyclo[3.1.0]hex-2-yl]-2-oxo-ethyl}-1H-pyrazolo[3,4-c]pyridine-3-carboxylic acid amide], the IC50 is 158 nM.

Staying with this assay, now noted: IC50, Factor D inhibition data using Method 1; recombinant human factor D 10 nM, substrate Z-Lys-thiobenzyl, fluorescence.
Take `CC(=O)c1nn(CC(=O)N2[C@@H]3C[C@@H]3C[C@H]2C(=O)N[C@H](C)[C@H]2CC2(Cl)Cl)c2ccc(OCc3ncccn3)cc12` [Example 32, (1R,3S,5R)-2-{2-[3-Acetyl-5-(pyrimidin-2-ylmethoxy)-indazol-1-yl]-acetyl}-2-aza-bicyclo[3.1.0]hexane-3-carboxylic acid [(R)-1-((R)-2,2-dichloro-cyclopropyl)-ethyl]-amide-Dia 1]: the IC50 was 6 nM.

For orientation: IC50 means the midpoint of a concentration-inhibition curve.
